# The source made the active and inactive calls. The calls are words filed in the database; no cut-off is given here.
# What was measured:
# A549 [1] = assay: Induction of apoptosis in human A549 cells assessed as caspase-3 cleavage at 50 uM incubated for 18 hrs by Western blot analysis; format: functional, cell-based
# Exportin-1 [2] = target: T1, Exportin-1 (Homo sapiens, UniProt O14980); assay: Binding affinity to CRM1 in human HeLa assessed as thermal stabilization at 20 uM incubated at 60 to 84 degreeC for 3 mins by CETSA based Western blot analysis; format: cell-based
# PANC-1 = assay: Antiproliferative activity against human PANC-1 cells assessed as inhibition of cell growth at 20 uM incubated for 72 hrs by SRB assay; format: functional, cell-based
# A549 [3] = assay: Induction of apoptosis in human A549 cells assessed as PARP-1 cleavage at 50 uM incubated for 18 hrs by Western blot analysis; format: functional, cell-based
# Exportin-1 [4] = target: T1, Exportin-1; assay: Inhibition of CRM1 cargo nuclear export in human A549 cells at 50 uM incubated for 4 hrs by confocal microscopic analysis; format: cell-based
# A549 [5] = assay: Induction of apoptosis in human A549 cells at 50 uM incubated for 18 hrs by Annexin V-FITC/PI staining based flow cytometric analysis; format: functional, cell-based
# OVCAR-8 = assay: Antiproliferative activity against human OVCAR-8 cells assessed as inhibition of cell growth at 20 uM incubated for 72 hrs by SRB assay; format: functional, cell-based
# HepG2 = assay: Antiproliferative activity against human HepG2 cells assessed as inhibition of cell growth at 20 uM incubated for 72 hrs by SRB assay; format: functional, cell-based
# Exportin-1 [6] = target: T1, Exportin-1; assay: Inhibition of CRM1 cargo nuclear export in human MCF7 cells at 50 uM incubated for 4 hrs by confocal microscopic analysis; format: cell-based
# SW480 = assay: Antiproliferative activity against human SW480 cells assessed as inhibition of cell growth at 20 uM incubated for 72 hrs by SRB assay; format: functional, cell-based
# A2780 = assay: Antiproliferative activity against human A2780 cells assessed as inhibition of cell growth at 20 uM incubated for 72 hrs by SRB assay; format: functional, cell-based
# HeLa [7] = assay: Antiproliferative activity against human HeLa cells assessed as inhibition of cell growth incubated for 72 hrs by SRB assay; format: functional, cell-based
# MDA-MB-453 = assay: Antiproliferative activity against human MDA-MB-453 cells assessed as inhibition of cell growth at 20 uM incubated for 72 hrs by SRB assay; format: functional, cell-based
# A549 [8] = assay: Antiproliferative activity against human A549 cells assessed as inhibition of cell growth at 20 uM incubated for 72 hrs by SRB assay; format: functional, cell-based
# [9] = Cytotoxicity against HEK293T cells assessed as inhibition of cell growth incubated for 72 hrs by SRB assay; format: toxicity, cell-based, HEK-293T; conditions: human
# Exportin-1 [10] = target: T1, Exportin-1; assay: Binding affinity to CRM1 (unknown origin) assessed as inhibition of CRM1 binding to IAF-conjugated NES PKI by measuring dissociation constant in the presence of RanGTP by competitive MST analysis
# A549 [11] = assay: Inhibition of colony formation in human A549 cells at 20 uM incubated for 48 hrs by crystal violet staining based analysis; format: functional, cell-based
# HuCCT-1 = assay: Antiproliferative activity against human HuCCT-1 cells assessed as inhibition of cell growth at 20 uM incubated for 72 hrs by SRB assay; format: functional, cell-based
# HeLa [12] = assay: Antiproliferative activity against human HeLa cells assessed as inhibition of cell growth at 20 uM incubated for 72 hrs by SRB assay; format: functional, cell-based
# A549 [13] = assay: Induction of apoptosis in human A549 cells assessed as activation of phosphorylated JNK at 50 uM incubated for 18 hrs by Western blot analysis; format: functional, cell-based
# Ishikawa = assay: Antiproliferative activity against human Ishikawa cells assessed as inhibition of cell growth at 20 uM incubated for 72 hrs by SRB assay; format: functional, cell-based
# MCF7 = assay: Antiproliferative activity against human MCF7 cells assessed as inhibition of cell growth at 20 uM incubated for 72 hrs by SRB assay; format: functional, cell-based
# [14] = tested on: Exportin-1 (Homo sapiens), O14980 [C528S]; assay: Inhibition of human CRM1 C528S mutant nuclear export transfected in human MCF7 cells at 50 uM incubated for 4 hrs by confocal microscopic analysis; format: cell-based
# A549 [15] = assay: Inhibition of colony formation in human A549 cells at 40 uM incubated for 48 hrs by crystal violet staining based analysis relative to control; format: functional
# [16] = Solubility of the compound in water; format: physicochemical
# Exportin-1 [17] = target: T1, Exportin-1; assay: Inhibition of CRM1 cargo nuclear export in digitonin-permeabilized human HeLa cells at 50 uM incubated for 4 hrs by confocal microscopic analysis; format: cell-based
# Exportin-1 [18] = target: T1, Exportin-1; assay: Covalent inhibition of CRM1 (unknown origin) binding to GST-tagged NES PKI at 20 uM incubated for 2 hrs in presence of DTT by Coomassie brilliant blue staining based pull-down assay
# MOLT-4 = assay: Antiproliferative activity against human MOLT-4 cells assessed as inhibition of cell growth incubated for 72 hrs by CellTiter Glo assay; format: functional, cell-based; conditions: MOLT-4, 72 h, pooled result: one value given for 6 cell lines, strains, targets or settings
# [19] = Toxicity in mouse at 100 mg/kg, ip administered for 2 weeks; format: organism-based; conditions: in vivo, 336 h
# [20] = Toxicity in mouse assessed as body weight loss at 100 mg/kg, ip administered for 2 weeks; format: organism-based; conditions: in vivo, 336 h
# Exportin-1 [21] = target: T1, Exportin-1; assay: Non-covalent inhibition of CRM1 (unknown origin) binding to GST-tagged NES PKI at 20 uM incubated for 2 hrs in presence of DTT by Coomassie brilliant blue staining based pull-down assay
# SK-N-SH [22] = assay: Antiproliferative activity against human SK-N-SH cells assessed as inhibition of cell growth incubated for 72 hrs by CellTiter Glo assay; format: functional, cell-based
# SK-N-SH [23] = assay: Antiproliferative activity against human SK-N-SH cells assessed as inhibition of cell growth incubated for 1 hrs by CellTiter Glo assay; format: functional, cell-based
# SiHa [24] = assay: Antiproliferative activity against human SiHa cells assessed as inhibition of cell growth incubated for 72 hrs by CellTiter Glo assay; format: functional, cell-based
# HCT-116 [25] = assay: Antiproliferative activity against human HCT-116 cells assessed as inhibition of cell growth incubated for 72 hrs by CellTiter Glo assay; format: functional, cell-based; conditions: HCT-116, 72 h
# SiHa [26] = assay: Antiproliferative activity against human SiHa cells assessed as inhibition of cell growth incubated for 1 hrs by CellTiter Glo assay; format: functional, cell-based
# HCT-116 [27] = assay: Antiproliferative activity against human HCT-116 cells assessed as inhibition of cell growth incubated for 1 hrs by CellTiter Glo assay; format: functional, cell-based; conditions: HCT-116, 1 h
# Exportin-1 [28] = target: T1, Exportin-1; assay: Inhibition of CRM1 (unknown origin) binding to GST-tagged NES PKI at 100 uM incubated for 1.5 hrs by Coomassie brilliant blue staining based pull-down assay
# Exportin-1 [29] = target: T1, Exportin-1; assay: Inhibition of CRM1 (unknown origin) binding to GST-tagged NES PKI assessed as CRM1/NES band ratio incubated for 1.5 hrs by Coomassie brilliant blue staining based pull-down assay (reference value: 1.00); design: concentration or dose not given beside the values
# Exportin-1 [30] = target: T1, Exportin-1; assay: Inhibition of CRM1 (unknown origin) binding to GST-tagged NES PKI at 100 uM incubated for 2 hrs in presence of DTT by Coomassie brilliant blue staining based pull-down assay
# Exportin-1 [31] = target: T1, Exportin-1; assay: Inhibition of GFP-fused CRM1 cargo nuclear export in human HeLa cells at 200 uM incubated for 4 hrs by confocal microscopic analysis; format: cell-based
# T1 sequence (O14980 whole entry): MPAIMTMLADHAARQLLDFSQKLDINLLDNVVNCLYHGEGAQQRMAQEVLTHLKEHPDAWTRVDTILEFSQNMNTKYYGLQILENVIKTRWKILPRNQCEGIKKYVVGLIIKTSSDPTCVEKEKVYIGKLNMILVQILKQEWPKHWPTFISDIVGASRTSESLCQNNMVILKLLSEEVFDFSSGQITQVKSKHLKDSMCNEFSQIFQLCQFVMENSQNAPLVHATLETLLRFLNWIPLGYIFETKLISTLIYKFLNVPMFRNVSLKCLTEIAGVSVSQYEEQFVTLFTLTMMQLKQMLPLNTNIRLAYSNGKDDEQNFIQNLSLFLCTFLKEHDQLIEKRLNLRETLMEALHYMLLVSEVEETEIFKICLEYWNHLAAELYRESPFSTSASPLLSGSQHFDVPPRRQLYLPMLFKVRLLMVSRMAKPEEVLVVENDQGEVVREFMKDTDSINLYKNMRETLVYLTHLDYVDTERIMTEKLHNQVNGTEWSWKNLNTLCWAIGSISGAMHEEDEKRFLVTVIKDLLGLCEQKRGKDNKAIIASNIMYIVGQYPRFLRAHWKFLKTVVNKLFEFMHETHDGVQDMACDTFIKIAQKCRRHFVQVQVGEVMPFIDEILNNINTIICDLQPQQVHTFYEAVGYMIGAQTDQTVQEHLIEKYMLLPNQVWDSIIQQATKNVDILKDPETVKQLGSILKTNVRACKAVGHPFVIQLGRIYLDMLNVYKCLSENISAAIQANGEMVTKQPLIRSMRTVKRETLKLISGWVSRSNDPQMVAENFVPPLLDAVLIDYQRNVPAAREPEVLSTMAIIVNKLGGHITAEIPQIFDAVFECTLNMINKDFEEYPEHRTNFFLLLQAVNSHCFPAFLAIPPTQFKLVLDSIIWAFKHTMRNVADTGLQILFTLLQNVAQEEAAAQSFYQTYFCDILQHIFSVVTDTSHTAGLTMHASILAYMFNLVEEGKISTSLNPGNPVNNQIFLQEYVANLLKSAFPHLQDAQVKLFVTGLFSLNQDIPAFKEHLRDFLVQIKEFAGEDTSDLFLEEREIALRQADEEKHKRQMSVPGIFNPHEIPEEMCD
# Chain of Exportin-1 (Homo sapiens), O14980 [C528S] (O14980 whole entry C528S): as the sequence (O14980 whole entry) above, with C528S counted along it
Activity (Exportin-1 [2]),inhibition (Exportin-1 [4]),inhibition (Exportin-1 [6]),IC50 (HeLa [7]),Kd (Exportin-1 [10]),SMILES,Activity (A549 [1]),Activity (PANC-1),Activity (A549 [3]),Activity (A549 [5]),Activity (OVCAR-8),Activity (HepG2),Activity (SW480),Activity (A2780),Activity (MDA-MB-453),Activity (A549 [8]),IC50 at 72 h [9],inhibition (A549 [11]),Activity (HuCCT-1),Activity (HeLa [12]),Activity (A549 [13]),further results
Active,Active,Active,15200 nM,1800 nM,O=C(O)c1ccc(N2CCN(c3cc(C(F)(F)F)ccc3C(F)(F)F)CC2)c(NC(=O)c2ccc(Br)cc2)c1,Active,Active,Active,Active,Active,Active,Active,Active,Active,Active,40400 nM,Active,Active,Active,Active,Activity (Ishikawa): Active; Activity (MCF7): Active; inhibition [14]: inactive; inhibition at 40 µM (A549 [15]): 100%; solubility [16]: < 0.14 µg/mL; inhibition (Exportin-1 [17]): Active
,,,430 nM,,O=C(/C=C\n1cnc(-c2cc(C(F)(F)F)cc(C(F)(F)F)c2)n1)NNc1cnccn1 [SELINEXOR],,,,,,,,,,,730 nM,,,,,inhibition (Exportin-1 [18]): inactive; IC50 (MOLT-4): 34 nM
Active,Active,Active,14600 nM,3600 nM,O=C(O)c1ccc(N2CCN(c3cc(C(F)(F)F)ccc3C(F)(F)F)CC2)c(NC(=O)c2ccc(Cl)cc2)c1,Active,Active,Active,Active,Active,Active,Active,Active,Active,Active,39000 nM,Active,Active,Active,Active,Activity [19]: Non-Toxic; Activity [20]: Non-Toxic; Activity (Ishikawa): Active; Activity (MCF7): Active; inhibition [14]: inactive; inhibition at 40 µM (A549 [15]): 100%; solubility [16]: < 0.14 µg/mL; inhibition (Exportin-1 [17]): Active
,,,,,CC(C)CCNC/C=C/[S+]([O-])c1cc(C(F)(F)F)cc(C(F)(F)F)c1 (stereo unspecified),,,,,,,,,,,,,,,,inhibition (Exportin-1 [21]): inactive
,,,,,CCC(=C/[C@H](C)C/C=C/C(C)=C/[C@@H](C)C(=O)[C@@H](C)[C@H](O)[C@@H](C)C/C(C)=C/C(=O)O)/C=C/[C@@H]1OC(=O)C=C[C@@H]1C [LEPTOMYCIN B],,,,,,,,,,,,,,,,IC50 (SK-N-SH [22]): 0.3 nM; IC50 (SK-N-SH [23]): 0.3 nM; IC50 (SiHa [24]): 0.3 nM; IC50 (HCT-116 [25]): 0.3 nM; IC50 (SiHa [26]): 0.3 nM; IC50 (HCT-116 [27]): 0.3 nM
,,,,12000 nM,Cc1ccc(C)c(N2CCN(c3ccc(C(=O)O)cc3NC(=O)c3ccc(Cl)cc3)CC2)c1,,,,,,,,,,,,,,,,inhibition (Exportin-1 [28]): Active; Ratio (Exportin-1 [29]): 0.02; inhibition (Exportin-1 [30]): Active; inhibition (Exportin-1 [31]): inactive
Active,Active,Active,10200 nM,1600 nM,O=C(O)c1ccc(N2CCN(c3cc(C(F)(F)F)cc(C(F)(F)F)c3)CC2)c(NC(=O)c2ccc(Br)cc2)c1,Active,Active,Active,Active,Active,Active,Active,Active,Active,Active,30900 nM,Active,Active,Active,Active,Activity (Ishikawa): Active; Activity (MCF7): Active; inhibition [14]: inactive; inhibition at 40 µM (A549 [15]): 100%; solubility [16]: < 0.14 µg/mL; inhibition (Exportin-1 [17]): Active
